# Test results published in patent US20080194585A1, “Fungicidal Pyrazine Derivatives” (priority 2005, published 2008).
# Read-outs that look alike come from different tables or passages of the source. Marks after values point to notes of the source that are not given here.
# Key:
# Plasmopara viticola = assay: Test D: grape downy mildew, spray after inoculation of grape seedlings; format: in vivo; details: for pest or weed control at 200 ppm / pest or weed control at 40 ppm: Plasmopara viticola, 168 h, read-out: Test D disease control rating
# Text: Upon removal, disease ratings were made. […] A dash (-) indicates no test results.
# Phytophthora infestans = assay: whole plant or invertebrate; format: in vivo; details: for pest or weed control at 200 ppm / pest or weed control at 40 ppm: Phytophthora infestans, in Solanum lycopersicum, topical, 144 h, read-out: Test F disease control rating; for Test F disease control rating: 200 ppm
# Septoria tritici = assay: Test J: wheat leaf blotch, preventive spray on wheat seedlings; format: in vivo; details: for pest or weed control at 200 ppm / pest or weed control at 40 ppm: Zymoseptoria tritici, 528 h, read-out: Test J disease control rating
# Text: A dash (-) indicates no test results.
# fusarium graminearium = assay: Test I: wheat head scab, preventive spray on wheat seedlings; details: for pest or weed control at 200 ppm / pest or weed control at 40 ppm: Fusarium, in Triticum aestivum, topical, 192 h; for pest or weed control at 200 ppm: read-out: Test I disease control rating, 200 ppm; for Test I disease control rating: 200 ppm
# Experimental: (the causal agent of wheat head scab) and incubated in a saturated atmosphere at 20° C. for 72 h, and then moved to a growth chamber at 22° C. for 5 days, after which disease ratings were made.
# [1] = tested on: Puccinia recondita f. sp. tritici; assay: Test K: wheat leaf rust, preventive spray on wheat seedlings; details: for pest or weed control at 200 ppm / pest or weed control at 40 ppm: Puccinia recondita, in Triticum aestivum, 192 h, read-out: Test K disease control rating
# Botrytis cinerea = assay: Test E: tomato botrytis, preventive spray on tomato seedlings; details: for pest or weed control at 200 ppm / pest or weed control at 40 ppm: Botrytis cinerea, in Solanum lycopersicum, topical, 72 h, read-out: Test E disease control rating
# Septoria nodorum = assay: Test H: wheat glum blotch, preventive spray on wheat seedlings; details: for pest or weed control at 200 ppm / pest or weed control at 40 ppm: Parastagonospora nodorum, in Triticum aestivum, topical, 168 h; for pest or weed control at 200 ppm: read-out: Test H disease control rating, 200 ppm
# Experimental: (the causal agent of wheat glum blotch) and incubated in a saturated atmosphere at 20° C. for 48 h, and then moved to a growth chamber at 22° C. for 5 days, after which disease ratings were made.
# [2] = tested on: Erysiphe graminis f. sp. tritici; assay: Test L: wheat powdery mildew, preventive spray on wheat seedlings; details: for pest or weed control at 200 ppm / pest or weed control at 40 ppm: Blumeria graminis, in Triticum aestivum, 168 h; for pest or weed control at 200 ppm: read-out: Test L disease control rating, 200 ppm
# Pythium aphanidermatum = assay: Test A: bluegrass pythium blight, preventive spray on bluegrass seedlings; details: for pest or weed control at 200 ppm / pest or weed control at 40 ppm: Pythium aphanidermatum, 120 h, read-out: Test A disease control rating; for Test A disease control rating: 200 ppm
# Rhizoctonia oryzae = assay: Test G: turf brown patch, preventive spray on creeping bent grass seedlings; details: for pest or weed control at 200 ppm / pest or weed control at 40 ppm: Waitea circinata, in Agrostis stolonifera, topical, 144 h; for pest or weed control at 200 ppm: read-out: Test G disease control rating, 200 ppm
# Experimental: (the causal agent of turf brown patch) and incubated in a saturated atmosphere at 27° C. for 24 h, and then moved to a growth chamber at 27° C. for 5 days, after which disease ratings were made.
# [3] = tested on: Colletotrichum orbiculare; assay: Test B: cucumber Colletotrichum anthracnose, preventive spray on cucumber seedlings; details: for pest or weed control at 200 ppm / pest or weed control at 40 ppm: Colletotrichum orbiculare, in Cucumis sativus, 144 h; for pest or weed control at 200 ppm: read-out: Test B disease control rating, 200 ppm; for Test B disease control rating: 40 ppm (marked *)
# [4] = read-out: Test I disease control rating, 40 ppm (*)
# [5] = read-out: Test H disease control rating, 40 ppm (*)
# [6] = read-out: Test L disease control rating, 40 ppm (*)
# [7] = read-out: Test G disease control rating, 40 ppm (*)
# [8] = read-out: Test B disease control rating, 40 ppm (*)
# [9] = 100 = 100% disease control, 0 = no control
# [10] = 40 ppm (marked *), 100 = 100% disease control, 0 = no control
# [11] = 100 = 100% disease control, 0 = no control relative to controls
smiles,measurement,setting,value
"CC(C)Cn1c(-c2c(F)cccc2F)c(Br)nc(-n2cccn2)c1=O [Compound 99, 5-Bromo-6-(2,6-difluorophenyl)-1-(2-methylpropyl)-3-(1H-pyrazol-1-yl)-2(1H)-pyrazinone]",pest or weed control at 200 ppm,Plasmopara viticola; 200 ppm,0%
same,pest or weed control at 200 ppm,Phytophthora infestans,0%
same,pest or weed control at 200 ppm,Septoria tritici,100%
same,pest or weed control at 200 ppm,fusarium graminearium,0%
same,pest or weed control at 200 ppm,[1],100%
same,pest or weed control at 200 ppm,Botrytis cinerea,100%
same,pest or weed control at 200 ppm,Septoria nodorum,100%
same,pest or weed control at 200 ppm,[2],100%
same,pest or weed control at 200 ppm,Pythium aphanidermatum,0%
same,pest or weed control at 200 ppm,Rhizoctonia oryzae,82%
same,pest or weed control at 200 ppm,[3],99%
"O=c1c(-n2cccn2)nc(Cl)c(-c2c(F)cccc2F)n1-c1ccccc1 [Compound 161, 5-Chloro-6-(2,6-difluorophenyl)-1-phenyl-3-(1H-pyrazol-1-yl)-2(1H)-pyrazinone]",pest or weed control at 40 ppm,Plasmopara viticola; 40 ppm (*),0%
same,pest or weed control at 40 ppm,Phytophthora infestans,0%
same,pest or weed control at 40 ppm,Septoria tritici; 40 ppm (*),97%
same,pest or weed control at 40 ppm,fusarium graminearium; [4],69%
same,pest or weed control at 40 ppm,[1],100%
same,pest or weed control at 40 ppm,Botrytis cinerea,100%
same,pest or weed control at 40 ppm,Septoria nodorum; [5],100%
same,pest or weed control at 40 ppm,[2]; [6],90%
same,pest or weed control at 40 ppm,Pythium aphanidermatum,0%
same,pest or weed control at 40 ppm,Rhizoctonia oryzae; [7],68%
same,pest or weed control at 40 ppm,[3]; [8],77%
"CCC(C)Cn1c(-c2ccc(F)cc2Cl)c(Cl)nc(-n2ccc(C)n2)c1=O (stereo not shown) [Compound 170, 5-Chloro-6-(2-chloro-4-fluorophenyl)-1-(2-methylbutyl)-3-(3-methyl-1H-pyrazol-1-yl)-2(1H)-pyrazinone]",pest or weed control at 40 ppm,Plasmopara viticola; 40 ppm (*),0%
same,pest or weed control at 40 ppm,Phytophthora infestans,0%
same,pest or weed control at 40 ppm,Septoria tritici; 40 ppm (*),100%
same,pest or weed control at 40 ppm,fusarium graminearium; [4],0%
same,pest or weed control at 40 ppm,[1],100%
same,pest or weed control at 40 ppm,Botrytis cinerea,100%
same,pest or weed control at 40 ppm,Septoria nodorum; [5],100%
same,pest or weed control at 40 ppm,[2]; [6],99%
same,pest or weed control at 40 ppm,Pythium aphanidermatum,0%
same,pest or weed control at 40 ppm,Rhizoctonia oryzae; [7],26%
same,pest or weed control at 40 ppm,[3]; [8],100%
"CCC(C)Cn1c(-c2c(F)cccc2F)c(Cl)nc(C(N)=O)c1=O (stereo not shown) [Compound 298, 6-Chloro-5-(2,6-difluorophenyl)-3,4-dihydro-4-(2-methylbutyl)-3-oxopyrazinecarboxamide]",pest or weed control at 200 ppm,"Plasmopara viticola; 200 ppm, 100 = 100% disease control, 0 = no control",85%
same,pest or weed control at 200 ppm,Phytophthora infestans,100%
same,pest or weed control at 200 ppm,Septoria tritici; [9],100%
same,pest or weed control at 200 ppm,fusarium graminearium; [9],96%
same,pest or weed control at 200 ppm,[1],100%
same,pest or weed control at 200 ppm,Botrytis cinerea,99%
same,pest or weed control at 200 ppm,Septoria nodorum; [9],99%
same,pest or weed control at 200 ppm,[2]; [9],89%
same,pest or weed control at 200 ppm,Pythium aphanidermatum,88%
same,pest or weed control at 200 ppm,Rhizoctonia oryzae; [9],78%
same,pest or weed control at 200 ppm,[3]; [9],66%
"O=c1c(-n2cccn2)nc(Cl)c(-c2c(F)cc(F)cc2F)n1-c1cccc(F)c1 [Compound 324, 5-Chloro-1-(3-fluorophenyl)-3-(1H-pyrazol-1-yl)-6-(2,4,6-trifluorophenyl)-2(1H)-pyrazinone]",pest or weed control at 40 ppm,Plasmopara viticola; [10],0%
same,pest or weed control at 40 ppm,Phytophthora infestans,0%
same,pest or weed control at 40 ppm,Septoria tritici; [10],100%
same,pest or weed control at 40 ppm,"fusarium graminearium; read-out: Test I disease control rating, 40 ppm (marked *), 100 = 100% disease control, 0 = no control",49%
same,pest or weed control at 40 ppm,[1],100%
same,pest or weed control at 40 ppm,Botrytis cinerea,99%
same,pest or weed control at 40 ppm,"Septoria nodorum; read-out: Test H disease control rating, 40 ppm (marked *), 100 = 100% disease control, 0 = no control",100%
same,pest or weed control at 40 ppm,"[2]; read-out: Test L disease control rating, 40 ppm (marked *), 100 = 100% disease control, 0 = no control",100%
same,pest or weed control at 40 ppm,Pythium aphanidermatum,0%
same,pest or weed control at 40 ppm,"Rhizoctonia oryzae; read-out: Test G disease control rating, 40 ppm (marked *), 100 = 100% disease control, 0 = no control",97%
same,pest or weed control at 40 ppm,"[3]; read-out: Test B disease control rating, 40 ppm (marked *), 100 = 100% disease control, 0 = no control",99%
CC(C)(C)Cn1c(-c2c(F)cccc2F)c(Cl)nc(-n2cccn2)c1=O [compound 59],Test D disease control rating,Plasmopara viticola; 200 ppm,0%
same,Test F disease control rating,Phytophthora infestans,0%
same,Test J disease control rating,Septoria tritici; 40 ppm (*),100* %
same,Test I disease control rating,fusarium graminearium,0%
same,Test K disease control rating,[1]; 40 ppm (*),94* %
same,Test E disease control rating,Botrytis cinerea; 40 ppm (*),100* %
same,Test H disease control rating,Septoria nodorum; 40 ppm (*),73* %
same,Test L disease control rating,[2]; 40 ppm (*),98* %
same,Test A disease control rating,Pythium aphanidermatum,0%
same,Test G disease control rating,Rhizoctonia oryzae; 40 ppm (*),49* %
COc1ccc(-n2c(-c3c(F)cccc3F)c(Cl)nc(-n3cccn3)c2=O)cc1 [compound 395],Test F disease control rating,Phytophthora infestans; [11],0%
same,Test J disease control rating,Septoria tritici; [10],99* %
same,Test I disease control rating,fusarium graminearium; [11],0%
same,Test K disease control rating,[1]; [10],99* %
same,Test E disease control rating,Botrytis cinerea; [10],80* %
same,Test H disease control rating,Septoria nodorum; [10],95* %
same,Test L disease control rating,[2]; [10],0* %
same,Test A disease control rating,Pythium aphanidermatum; [11],0%
same,Test G disease control rating,Rhizoctonia oryzae; [10],0* %
same,Test B disease control rating,[3]; [9],57* %
O=c1c(-n2cccn2)nc(Cl)c(-c2c(F)cccc2F)n1-c1ccccc1OC(F)(F)F [compound 396],Test F disease control rating,Phytophthora infestans; [11],0%
same,Test J disease control rating,Septoria tritici; [10],85* %
same,Test I disease control rating,fusarium graminearium; [11],0%
same,Test K disease control rating,[1]; [10],94* %
same,Test E disease control rating,Botrytis cinerea; [10],70* %
same,Test H disease control rating,Septoria nodorum; [10],89* %
same,Test L disease control rating,[2]; [10],91* %
same,Test A disease control rating,Pythium aphanidermatum; [11],0%
same,Test G disease control rating,Rhizoctonia oryzae; [10],0* %
same,Test B disease control rating,[3]; [9],13* %
O=c1c(-n2cccn2)nc(Cl)c(-c2c(F)cccc2F)n1-c1ccccc1OC(F)(F)F [compound 397],Test F disease control rating,Phytophthora infestans; [11],0%
same,Test J disease control rating,Septoria tritici; [10],94* %
same,Test I disease control rating,fusarium graminearium; [11],0%
same,Test K disease control rating,[1]; [10],80* %
same,Test E disease control rating,Botrytis cinerea; [10],99* %
same,Test H disease control rating,Septoria nodorum; [10],94* %
same,Test L disease control rating,[2]; [10],0* %
same,Test A disease control rating,Pythium aphanidermatum; [11],0%
same,Test G disease control rating,Rhizoctonia oryzae; [10],0* %
same,Test B disease control rating,[3]; [9],37* %
O=c1c(-n2cccn2)nc(Cl)c(-c2c(F)cccc2F)n1-c1ccc(OC(F)(F)F)cc1 [compound 398],Test F disease control rating,Phytophthora infestans; [11],0%
same,Test J disease control rating,Septoria tritici; [10],97* %
same,Test I disease control rating,fusarium graminearium; [11],0%
same,Test K disease control rating,[1]; [10],97* %
same,Test E disease control rating,Botrytis cinerea; [10],98* %
same,Test H disease control rating,Septoria nodorum; [10],75* %
same,Test L disease control rating,[2]; [10],78* %
same,Test A disease control rating,Pythium aphanidermatum; [11],0%
same,Test G disease control rating,Rhizoctonia oryzae; [10],24* %
same,Test B disease control rating,[3]; [9],56* %
O=c1c(-n2cccn2)nc(Cl)c(-c2c(F)cccc2F)n1-c1ccccc1C(F)(F)F [compound 399],Test F disease control rating,Phytophthora infestans; [11],0%
same,Test J disease control rating,Septoria tritici; [10],100* %
same,Test I disease control rating,fusarium graminearium; [11],0%
same,Test K disease control rating,[1]; [10],99* %
same,Test E disease control rating,Botrytis cinerea; [10],97* %
same,Test H disease control rating,Septoria nodorum; [10],90* %
same,Test L disease control rating,[2]; [10],93* %
same,Test A disease control rating,Pythium aphanidermatum; [11],0%
same,Test G disease control rating,Rhizoctonia oryzae; [10],24* %
same,Test B disease control rating,[3]; [9],88* %
